≈ marks a conversion by molar mass, not a printed value.
Columns and labels:
Type in all cases: physicochemical
[1] = Stability after storing different forms of Tigecycline at 80° C. for 7 days; settings: for 4-Epi-Tigecycline 7 days at 80° C. / Total impurities 7 days at 80° C.: after storing 7 days at 80° C.; for 4-Epi-Tigecycline ambient conditions / Total impurities ambient conditions: ambient conditions (before storage)
[2] = Water content and hygroscopicity, open storage for 24 hours at 80% relative humidity; settings: for water content 1 day at 80% rH: open storage 1 day at 80% rH; for water uptake 1 day at 80% rH: open storage for 24 hours at 80% relative humidity
Source text: Furthermore suitable crystalline forms of Tigecycline should be low hygroscopic, as water uptake may cause the formation of undesired byproducts like e.g. 4-Epi-Tigecycline. […] Therefore crystalline form X is less hygroscopic than forms I, II, Ill and V of WO 2006/128150 and also less hygroscopic than form I of WO 2007/127292.

[3] = Water solubility testing (saturated solution in distilled water, UV-vis 347 nm); settings: for Concentration (water solubility): 30 min
Procedure: A UV-vis Lambda 35 spectrophotometer (Perkin-Elmer) was used (A=347 nm, 1.0 cm quartz cells). Perkin Elmer® UV WinLab-5.1 software was used.
A saturated solution of Tigecycline in distilled water was prepared and the suspension was stirred at room temperature for 30 minutes with a stirring speed of 1000 U/min. The suspension was filtrated through a 0.45 μm filter. Finally the resulting solution was diluted 10000-fold and measured against water at a wavelength of 347 nm.

With `CN(C)c1cc(NC(=O)CNC(C)(C)C)c(O)c2c1C[C@H]1C[C@H]3[C@H](N(C)C)C(O)=C(C(N)=O)C(=O)[C@@]3(O)C(O)=C1C2=O` [WO 2007/127292 II, Tigecycline] as the compound, how does the 4-Epi-Tigecycline 7 days at 80° C. ([1]; listed as WO 2007/127792 II) read?
The 4-Epi-Tigecycline 7 days at 80° C. was 0.38%.

And the Total impurities 7 days at 80° C. ([1]; listed as WO 2007/127792 II)?
The Total impurities 7 days at 80° C. was 0.91%.

What about the 4-Epi-Tigecycline ambient conditions ([1]; listed as WO 2007/127792 II) of the same compound?
Its 4-Epi-Tigecycline ambient conditions is 0.17%.

What about the Total impurities ambient conditions ([1]; listed as WO 2007/127792 II) of the same compound?
The Total impurities ambient conditions was 0.24%.

What about the “water content [%] ambient conditions” value [2] of the same compound?
Its value is 0.18%.

What about the “water content 1 day at 80% rH” value [2] of the same compound?
Its value is 0.25%.

And the “water uptake 1 day at 80% rH” value [2]?
Its value is 0.07%.

With `CN(C)c1cc(NC(=O)CNC(C)(C)C)c(O)c2c1C[C@H]1C[C@H]3[C@H](N(C)C)C(O)=C(C(N)=O)C(=O)[C@@]3(O)C(O)=C1C2=O` [WO 2007/127292 I, Tigecycline] as the compound, how does the 4-Epi-Tigecycline 7 days at 80° C. ([1]; listed as WO 2007/127792 I) read?
Its 4-Epi-Tigecycline 7 days at 80° C. is 1.26%.

What about the Total impurities 7 days at 80° C. ([1]; listed as WO 2007/127792 I) of the same compound?
The Total impurities 7 days at 80° C. was 2.22%.

And the 4-Epi-Tigecycline ambient conditions ([1]; listed as WO 2007/127792 I)?
Its 4-Epi-Tigecycline ambient conditions is 0.34%.

What about the Total impurities ambient conditions ([1]; listed as WO 2007/127792 I) of the same compound?
Its Total impurities ambient conditions is 0.59%.

What about the “water content [%] ambient conditions” value [2] of the same compound?
The value was 0.13%.

What about the “water content 1 day at 80% rH” value [2] of the same compound?
The value was 6.39%.

And the “water uptake 1 day at 80% rH” value [2]?
The value was 6.26%.

And the “water uptake 1 day at 80% rH” value ([2]; listed as form I of WO 2007/127292)?
Its value is 6.26%.

What about the “Concentration (water solubility)” value [3] of the same compound?
The value was 54 mg/mL.

With `CN(C)c1cc(NC(=O)CNC(C)(C)C)c(O)c2c1C[C@H]1C[C@H]3[C@H](N(C)C)C(O)=C(C(N)=O)C(=O)[C@@]3(O)C(O)=C1C2=O` [WO 2006/128150 III, Tigecycline] as the compound, how does the 4-Epi-Tigecycline ambient conditions [1] read?
Its 4-Epi-Tigecycline ambient conditions is 0.16%.

What about the Total impurities ambient conditions [1] of the same compound?
Its Total impurities ambient conditions is 0.16%.

What about the “water content [%] ambient conditions” value [2] of the same compound?
Its value is 0.69%.

What about the “Concentration (water solubility)” value [3] of the same compound?
Its value is 174 mg/mL.

Which results are given for `CN(C)c1cc(NC(=O)CNC(C)(C)C)c(O)c2c1C[C@H]1C[C@H]3[C@H](N(C)C)C(O)=C(C(N)=O)C(=O)[C@@]3(O)C(O)=C1C2=O` [WO 2006/128150 II, Tigecycline]?
Total impurities ambient conditions [1]: 1.6%; Concentration (water solubility) [3]: 170 mg/mL

With `CN(C)c1cc(NC(=O)CNC(C)(C)C)c(O)c2c1C[C@H]1C[C@H]3[C@H](N(C)C)C(O)=C(C(N)=O)C(=O)[C@@]3(O)C(O)=C1C2=O` [WO 2006/128150 IV, Tigecycline] as the compound, how does the 4-Epi-Tigecycline 7 days at 80° C. [1] read?
The 4-Epi-Tigecycline 7 days at 80° C. was 0.38%.

And the Total impurities 7 days at 80° C. [1]?
The Total impurities 7 days at 80° C. was 0.87%.

And the 4-Epi-Tigecycline ambient conditions [1]?
Its 4-Epi-Tigecycline ambient conditions is 0.23%.

What about the Total impurities ambient conditions [1] of the same compound?
The Total impurities ambient conditions was 0.4%.

And the “water content [%] ambient conditions” value [2]?
Its value is 2.90%.

And the “water uptake 1 day at 80% rH” value [2]?
The value was 0.43%.

And the solubility at 30 min ([3]; distilled water, water, thermodynamic from solid, distilled water, room temperature, stirred 30 minutes, 0.45 μm filter, read-out: Concentration (water solubility))?
The solubility at 30 min was 322 mg/mL (≈ 550 mM).

With `CN(C)c1cc(NC(=O)CNC(C)(C)C)c(O)c2c1C[C@H]1C[C@H]3[C@H](N(C)C)C(O)=C(C(N)=O)C(=O)[C@@]3(O)C(O)=C1C2=O` [X, Tigecycline] as the compound, how does the 4-Epi-Tigecycline 7 days at 80° C. [1] read?
The 4-Epi-Tigecycline 7 days at 80° C. was 0.79%.

And the Total impurities 7 days at 80° C. [1]?
Its Total impurities 7 days at 80° C. is 3.48%.

What about the 4-Epi-Tigecycline ambient conditions [1] of the same compound?
Its 4-Epi-Tigecycline ambient conditions is 0.2%.

What about the Total impurities ambient conditions [1] of the same compound?
Its Total impurities ambient conditions is 0.58%.

And the “water content [%] ambient conditions” value [2]?
Its value is 0.29%.

What about the “water content 1 day at 80% rH” value [2] of the same compound?
Its value is 0.86%.

And the “water uptake 1 day at 80% rH” value [2]?
The value was 0.57%.

What about the “water uptake 1 day at 80% rH” value ([2]; listed as form X) of the same compound?
Its value is 0.57%.

And the “Concentration (water solubility)” value [3]?
The value was 162 mg/mL.

For `CN(C)c1cc(NC(=O)CNC(C)(C)C)c(O)c2c1C[C@H]1C[C@H]3[C@H](N(C)C)C(O)=C(C(N)=O)C(=O)[C@@]3(O)C(O)=C1C2=O` [WO 2006/128150 I, Tigecycline], which 4-Epi-Tigecycline ambient conditions [1] is on record?
The 4-Epi-Tigecycline ambient conditions was 0.36%.

And the Total impurities ambient conditions [1]?
The Total impurities ambient conditions was 0.75%.

And the “water uptake 1 day at 80% rH” value [2]?
The value was 3.00%.

And the “Concentration (water solubility)” value [3]?
Its value is 201 mg/mL.

Which 4-Epi-Tigecycline 7 days at 80° C. [1] does the source give for `CN(C)c1cc(NC(=O)CNC(C)(C)C)c(O)c2c1C[C@H]1C[C@H]3[C@H](N(C)C)C(O)=C(C(N)=O)C(=O)[C@@]3(O)C(O)=C1C2=O` [WO 2006/128150 V, Tigecycline] here?
Its 4-Epi-Tigecycline 7 days at 80° C. is 0.18%.

And the Total impurities 7 days at 80° C. [1]?
The Total impurities 7 days at 80° C. was 0.37%.

What about the 4-Epi-Tigecycline ambient conditions [1] of the same compound?
Its 4-Epi-Tigecycline ambient conditions is less than 0.05%.

And the Total impurities ambient conditions [1]?
Its Total impurities ambient conditions is 0.22%.

What about the “water content [%] ambient conditions” value [2] of the same compound?
Its value is 0.19%.

Reference: patent US20100256402A1, “NOVEL SOLVATE” (Sandoz AG, priority 2007, published 2010)
